Measured values published in patent publication US12486267B2, “Imidazo[1,2-A]pyridine and [1,2,4]triazolo[1,5-A]pyridine derivatives as TLR9 inhibitors for the treatment of fibrosis” (BRISTOL-MYERS SQUIBB COMPANY, priority 2020, dated 2025).

What was measured:
Type in all cases: cell-based
human TLR7 = molecular target: T1, human TLR7 (Homo sapiens, UniProt Q9NYK1); experiment: TLR7 inhibition reporter assay (HEK-Blue cells, SEAP reporter); conditions: HEK-Blue cells overexpressing human TLR7; stimulated with gardiquimod 7.5 μM; 22 hour incubation; SEAP readout
T1 sequence (Q9NYK1 27-1049): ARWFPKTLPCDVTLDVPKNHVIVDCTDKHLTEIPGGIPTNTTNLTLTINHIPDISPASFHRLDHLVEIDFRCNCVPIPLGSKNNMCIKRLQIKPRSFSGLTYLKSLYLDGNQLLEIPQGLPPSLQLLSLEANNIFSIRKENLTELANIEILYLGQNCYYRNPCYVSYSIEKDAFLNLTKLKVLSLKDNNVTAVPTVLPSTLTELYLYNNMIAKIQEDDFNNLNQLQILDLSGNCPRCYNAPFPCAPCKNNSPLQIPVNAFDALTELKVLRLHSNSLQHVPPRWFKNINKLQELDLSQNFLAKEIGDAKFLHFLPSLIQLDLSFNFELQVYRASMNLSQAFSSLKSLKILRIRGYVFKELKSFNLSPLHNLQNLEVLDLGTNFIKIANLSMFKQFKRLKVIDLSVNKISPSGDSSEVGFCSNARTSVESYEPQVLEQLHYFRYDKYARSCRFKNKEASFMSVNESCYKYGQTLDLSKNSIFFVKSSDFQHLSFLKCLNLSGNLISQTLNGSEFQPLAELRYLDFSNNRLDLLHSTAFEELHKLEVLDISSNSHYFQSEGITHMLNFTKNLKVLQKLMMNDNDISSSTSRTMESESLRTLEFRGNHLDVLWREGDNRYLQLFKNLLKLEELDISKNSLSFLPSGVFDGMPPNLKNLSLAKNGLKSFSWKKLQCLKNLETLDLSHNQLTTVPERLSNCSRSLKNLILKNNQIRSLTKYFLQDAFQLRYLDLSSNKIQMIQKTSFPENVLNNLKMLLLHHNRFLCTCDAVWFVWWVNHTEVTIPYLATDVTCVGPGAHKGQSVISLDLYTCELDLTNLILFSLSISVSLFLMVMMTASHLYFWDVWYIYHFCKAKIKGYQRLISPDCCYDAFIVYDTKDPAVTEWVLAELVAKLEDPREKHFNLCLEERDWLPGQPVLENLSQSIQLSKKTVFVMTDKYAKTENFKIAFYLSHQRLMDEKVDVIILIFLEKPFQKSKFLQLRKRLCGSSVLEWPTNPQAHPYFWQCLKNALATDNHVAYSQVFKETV
Method: (§1) TLR7/8/9 Inhibition Reporter Assays
(§2) HEK-Blue™-cells (Invivogen) overexpressing human TLR7, TLR8 or TLR9 receptors were used for screening inhibitors of these receptors using an inducible SEAP (secreted embryonic alkaline phosphatase) reporter gene under the control of the […] minimal promoter fused to five NF-κB and AP-1-binding sites. Briefly, cells are seeded into Greiner 384 well plates (15000 cells per well for TLR7, 20,000 for TLR8 and 25,000 for TLR9) and then treated with test compounds in DMSO to yield a final dose response concentration range of 0.05 nM-50 μM. After a 30 minute compound pre-treatment at room temperature, the cells are then stimulated with a TLR7 ligand (gardiquimod at a final concentration of 7.5 μM), TLR8 ligand (R848 at a final concentration of 15.9 μM) or TLR9 ligand (ODN2006 at a final concentration of 5 nM) to activate NF-κB and AP-1 which induce the production of SEAP. After a 22 hour incubation at 37° C., 5% CO2, SEAP levels are determined with the addition of HEK-Blue™ Detection reagent (Invivogen), a cell culture medium that allows for detection of SEAP, according to manufacturer's specifications. The percent inhibition is determined as the % reduction in the HEK-Blue signal present in wells treated with agonist plus DMSO alone compared to wells treated with a known inhibitor.

human TLR8 = molecular target: T2, human TLR8 (Homo sapiens, UniProt Q9NR97); experiment: TLR8 inhibition reporter assay (HEK-Blue cells, SEAP reporter); conditions: HEK-Blue cells overexpressing human TLR8; stimulated with R848 15.9 μM; 22 hour incubation; SEAP readout
T2 sequence (Q9NR97 27-1041): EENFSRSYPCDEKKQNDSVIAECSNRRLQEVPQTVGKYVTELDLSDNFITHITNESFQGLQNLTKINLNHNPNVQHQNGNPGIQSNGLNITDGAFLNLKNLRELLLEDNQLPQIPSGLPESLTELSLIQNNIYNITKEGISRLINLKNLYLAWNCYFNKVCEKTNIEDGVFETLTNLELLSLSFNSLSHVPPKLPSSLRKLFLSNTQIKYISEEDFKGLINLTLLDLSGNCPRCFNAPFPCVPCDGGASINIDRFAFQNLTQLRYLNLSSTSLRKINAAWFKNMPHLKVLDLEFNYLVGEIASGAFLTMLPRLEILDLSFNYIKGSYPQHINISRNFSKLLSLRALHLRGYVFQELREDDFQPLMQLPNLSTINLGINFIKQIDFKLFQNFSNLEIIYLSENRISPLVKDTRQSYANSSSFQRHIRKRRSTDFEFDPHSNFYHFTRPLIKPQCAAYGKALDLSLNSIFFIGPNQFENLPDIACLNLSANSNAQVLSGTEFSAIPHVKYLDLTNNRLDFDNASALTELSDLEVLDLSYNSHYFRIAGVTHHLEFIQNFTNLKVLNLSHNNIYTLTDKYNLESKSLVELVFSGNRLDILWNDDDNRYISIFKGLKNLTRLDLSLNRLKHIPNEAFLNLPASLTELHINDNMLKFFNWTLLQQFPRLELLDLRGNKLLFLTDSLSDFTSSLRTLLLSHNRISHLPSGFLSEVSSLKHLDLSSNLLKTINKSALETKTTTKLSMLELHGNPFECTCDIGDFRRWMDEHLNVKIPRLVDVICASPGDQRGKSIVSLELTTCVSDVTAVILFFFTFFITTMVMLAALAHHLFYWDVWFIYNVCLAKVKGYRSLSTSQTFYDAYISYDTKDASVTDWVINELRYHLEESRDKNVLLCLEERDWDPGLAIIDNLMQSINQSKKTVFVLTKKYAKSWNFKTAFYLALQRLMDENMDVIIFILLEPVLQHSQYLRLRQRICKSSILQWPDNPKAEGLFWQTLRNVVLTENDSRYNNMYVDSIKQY
Method: as §1, §2

human TLR9 = molecular target: T3, human TLR9 (Homo sapiens, UniProt Q9NR96); experiment: TLR9 inhibition reporter assay (HEK-Blue cells, SEAP reporter); conditions: HEK-Blue cells overexpressing human TLR9; stimulated with ODN2006 5 nM; 22 hour incubation; SEAP readout
T3 sequence (Q9NR96 26-1032): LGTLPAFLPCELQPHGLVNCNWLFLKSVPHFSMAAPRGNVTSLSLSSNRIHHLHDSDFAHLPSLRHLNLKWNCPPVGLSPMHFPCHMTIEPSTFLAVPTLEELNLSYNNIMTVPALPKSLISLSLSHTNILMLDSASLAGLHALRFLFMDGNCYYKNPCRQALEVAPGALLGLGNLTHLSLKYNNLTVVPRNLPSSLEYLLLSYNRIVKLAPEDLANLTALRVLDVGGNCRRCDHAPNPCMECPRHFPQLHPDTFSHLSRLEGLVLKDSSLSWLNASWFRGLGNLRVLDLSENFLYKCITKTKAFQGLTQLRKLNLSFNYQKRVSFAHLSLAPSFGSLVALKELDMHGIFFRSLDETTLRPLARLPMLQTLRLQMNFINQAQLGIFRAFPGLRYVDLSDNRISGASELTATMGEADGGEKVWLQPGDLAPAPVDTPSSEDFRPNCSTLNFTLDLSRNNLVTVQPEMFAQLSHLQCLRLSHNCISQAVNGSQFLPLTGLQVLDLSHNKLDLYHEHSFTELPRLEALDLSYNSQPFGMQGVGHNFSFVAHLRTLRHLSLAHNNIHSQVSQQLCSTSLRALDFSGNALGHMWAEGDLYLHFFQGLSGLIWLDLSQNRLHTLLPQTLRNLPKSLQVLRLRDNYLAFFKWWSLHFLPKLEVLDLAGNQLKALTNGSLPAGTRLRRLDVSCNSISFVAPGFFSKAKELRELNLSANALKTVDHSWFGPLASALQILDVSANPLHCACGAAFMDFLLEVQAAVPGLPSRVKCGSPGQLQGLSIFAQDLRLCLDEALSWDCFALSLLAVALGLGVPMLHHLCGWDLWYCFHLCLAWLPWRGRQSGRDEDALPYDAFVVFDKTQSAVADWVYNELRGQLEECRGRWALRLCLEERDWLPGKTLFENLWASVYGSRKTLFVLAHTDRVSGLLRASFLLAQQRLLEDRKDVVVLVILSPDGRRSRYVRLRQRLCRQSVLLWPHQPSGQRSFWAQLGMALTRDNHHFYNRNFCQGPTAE
Method: as §1, §2

IC50 (human TLR7)	IC50 (human TLR8)	IC50 (human TLR9)	SMILES
3400 nM	> 50000 nM	11 nM	CS(=O)(=O)c1ccc(-c2cn3cc(C4CCN(C5CC6CCC(C5)N6C5CCOCC5)CC4)cc(F)c3n2)cc1 (single isomer, unassigned) [Example 121, 8-fluoro-2-(4-(methylsulfonyl)phenyl)-6-(1-(8-(tetrahydro-2H-pyran-4-yl)-8-azabicyclo[3.2.1]octan-3-yl)piperidin-4-yl) imidazo[1,2-a]pyridine]
5800 nM	9500 nM	97 nM	Cc1cc(C2CCN(C3CC4CCC(C3)N4C(C)C)CC2)cn2cc(-c3ccc(S(C)(=O)=O)cc3)nc12 (single isomer, unassigned) [Example 63, 6-(1-(8-isopropyl-8-azabicyclo[3.2.1]octan-3-yl)piperidin-4-yl)-8-methyl-2-(4-(methylsulfonyl)phenyl)imidazo[1,2-a]pyridine]
2100 nM	> 50000 nM	90 nM	COc1ccc(-c2cn3c(n2)CCC(C2CCN(C4CC5(C4)CN(C(C)C)C5)CC2)C3)cc1OC (racemic) [Example 45, 2-(3,4-dimethoxyphenyl)-6-(1-(2-isopropyl-2-azaspiro[3.3]heptan-6-yl)piperidin-4-yl)-5,6,7,8-tetrahydroimidazo[1,2-a]pyridine]
1600 nM	36000 nM	9.7 nM	CS(=O)(=O)c1ccc(-c2cn3cc(C4CCN(C5CCCN(CC6CC6)CC5)CC4)cc(F)c3n2)cc1 (single isomer, unassigned) [Example 127, 6-(1-(1-(cyclopropylmethyl)azepan-4-yl)piperidin-4-yl)-8-fluoro-2-(4-(methylsulfonyl)phenyl)imidazo[1,2-a]pyridine]
16700 nM	16700 nM	171 nM	CC(C)CN1C2CCC1CC(N1CCC([C@H]3CCc4nc(-c5ccc(S(C)(=O)=O)cc5)cn4C3)CC1)C2 (single isomer, unassigned) [Example 79]
29000 nM	> 50000 nM	1100 nM	COc1ccc(-c2nc3cc(C4CCN(C5CCN(C(C)C)CC5)CC4)ccn3n2)cc1OC [Example 60, 2-(3,4-dimethoxyphenyl)-7-(1′-isopropyl-[1,4′-bipiperidin]-4-yl)-[1,2,4]triazolo[1,5-a]pyridine]
2000 nM	17000 nM	66 nM	CC(C)CN1C2CCC1CC(N1CCC(c3cc(F)c4nc(-c5ccc(S(C)(=O)=O)cc5)cn4c3)CC1)C2 (single isomer, unassigned) [Example 114, 8-fluoro-6-(1-(8-isobutyl-8-azabicyclo[3.2.1]octan-3-yl)piperidin-4-yl)-2-(4-(methylsulfonyl)phenyl)imidazo[1,2-a]pyridine]
1100 nM	17100 nM	21 nM	CS(=O)(=O)c1ccc(-c2cn3cc(C4CCN(C5CC6CCC(C5)N6C5CCC5)CC4)cc(F)c3n2)cc1 (single isomer, unassigned) [Example 118, 6-(1-(8-cyclobutyl-8-azabicyclo[3.2.1]octan-3-yl)piperidin-4-yl)-8-fluoro-2-(4-(methylsulfonyl)phenyl)imidazo[1,2-a]pyridine]
2700 nM	> 50000 nM	122 nM	COc1ccc(-c2cn3cc(C4CCN(C5CCN(CC(C)C)CC5)CC4)ccc3n2)cc1OC [Example 12, 2-(3,4-dimethoxyphenyl)-6-(1′-isobutyl-[1,4′-bipiperidin]-4-yl)imidazo[1,2-a]pyridine]
3800 nM	> 50000 nM	52 nM	COc1ccc(-c2cn3cc(C4CCN(C5CCN(C(C)C)CC5)CC4)cc(C)c3n2)cc1OC [Example 2, 2-(3,4-dimethoxyphenyl)-6-(1′-isopropyl-[1,4′-bipiperidin]-4-yl)-8-methylimidazo[1,2-a]pyridine]
> 50000 nM	> 50000 nM	68 nM	COc1ccc(-c2cn3cc(C4CCN(C5CC6(C5)CN(C5CCC5)C6)CC4)cc(C)c3n2)cc1OC [Example 14, 6-(1-(2-cyclobutyl-2-azaspiro[3.3]heptan-6-yl)piperidin-4-yl)-2-(3,4-dimethoxyphenyl)-8-methylimidazo[1,2-a]pyridine]
